Test results reported in patent publication US20220356174A1, “PYRIDIN-2-ONE COMPOUNDS USEFUL AS SMARCA2 ANTAGONISTS” (Epizyme, Inc., priority 2018, published 2022).
pIC50: −log10 of the molar value. Like-named read-outs stand apart in the source and are kept apart here.

Key:
[1] = target: T1, FL-SMARCA2 (full-length human SMARCA2 isoform 1) (Homo sapiens, UniProt P51531); assay: SMARCA2 ATPase activity assay (ADP-Glo, chicken mononucleosome substrate); format: biochemical; details: ATPase assay, enzyme 5 nM, ATP 250 uM, chicken mononucleosome 10 nM, 30 min preincubation
T1 construct: FLAG tag (YKDDDDK) (C); made in house; host or cells: Sf21 insect cells (baculovirus, pFastBacI)

SMARCA2 = target: T2, SMARCA2 (Homo sapiens, UniProt P51531); assay: SMARCA2 FRET nucleosome remodeling activity assay; format: biochemical
T2 construct: FLAG tag (YKDDDDK) (C); made in house; host or cells: Sf21 insect cells (baculovirus, pFastBacI)
Protocol: The SMARCA2 remodeling assay was initiated by the addition of 2 uL of a nucleosome remodeling assay substrate and ATP mixture (final volume=10 uL). […] The assays were terminated after 15 minutes by the addition of 2 uL EDTA (final concentration of 25 mM). The SMARCA2 remodeling activity was determined by measuring the fluorescence ratio of the Cy3 and Cy5 labels ([…]). The remodeling of the nucleosome substrate causes an increase in the spacing between the Cy3 and Cy5 labels and therefore a reduction in FRET and an increase in Cy3/Cy5 fluorescence ratio.

A549 cells [2] = assay: High-throughput proliferation (HTP) assay for A549 cells (CellTiter-Glo, 7 days); format: cell-based; details: Homo sapiens, 168 h, read-out: A549 SMARCA2 IC50
In short: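 Seven-day growth of A549 (62.5 cells/well, F12K with 10% HI-FBS, 37° C.) with compound, read by CellTiter-Glo ATP luminescence. Percent inhibition scaled between DMSO wells and 10 μM Doxorubicin wells, then fitted for EC50 and IC50.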

FL-SMARCA4 = FL-SMARCA4 (Homo sapiens, UniProt P51532); assay: SMARCA4 ATPase activity assay (ADP-Glo, chicken mononucleosome substrate)
H358 cells = assay: High-throughput proliferation (HTP) assay for H358 cells (CellTiter-Glo, 7 days); format: cell-based; details: Homo sapiens, NCI-H358, 168 h, read-out: H358 SMARCA2 IC50
In short: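 Cells were plated at 1,000 cells/well in RPMI 1640 + 10% HI-FBS + 1% pen/strep on pre-dispensed compound and incubated 7 days at 37 °C, 5% CO2. Viability was read as ATP luminescence with CellTiter-Glo after 30 min at RT. DMSO served as 0% and 10 µM doxorubicin as 100% inhibition for EC50/IC50.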

A549 cells [3] = assay: Long term proliferation (LTP) assay, day 15 IC50 in A549 cells; format: cell-based; details: Homo sapiens, 360 h
[4] = FL-SMARCA4 IC50, Table 3.2, ATPase assay, enzyme 5 nM, ATP 250 uM, chicken mononucleosome 10 nM, 30 min preincubation
[5] = FL-SMARCA4 IC>50, Table 3c.2, ATPase assay, enzyme 5 nM, ATP 250 uM, chicken mononucleosome 10 nM, 30 min preincubation

Chain of FL-SMARCA4 (P51532 whole entry): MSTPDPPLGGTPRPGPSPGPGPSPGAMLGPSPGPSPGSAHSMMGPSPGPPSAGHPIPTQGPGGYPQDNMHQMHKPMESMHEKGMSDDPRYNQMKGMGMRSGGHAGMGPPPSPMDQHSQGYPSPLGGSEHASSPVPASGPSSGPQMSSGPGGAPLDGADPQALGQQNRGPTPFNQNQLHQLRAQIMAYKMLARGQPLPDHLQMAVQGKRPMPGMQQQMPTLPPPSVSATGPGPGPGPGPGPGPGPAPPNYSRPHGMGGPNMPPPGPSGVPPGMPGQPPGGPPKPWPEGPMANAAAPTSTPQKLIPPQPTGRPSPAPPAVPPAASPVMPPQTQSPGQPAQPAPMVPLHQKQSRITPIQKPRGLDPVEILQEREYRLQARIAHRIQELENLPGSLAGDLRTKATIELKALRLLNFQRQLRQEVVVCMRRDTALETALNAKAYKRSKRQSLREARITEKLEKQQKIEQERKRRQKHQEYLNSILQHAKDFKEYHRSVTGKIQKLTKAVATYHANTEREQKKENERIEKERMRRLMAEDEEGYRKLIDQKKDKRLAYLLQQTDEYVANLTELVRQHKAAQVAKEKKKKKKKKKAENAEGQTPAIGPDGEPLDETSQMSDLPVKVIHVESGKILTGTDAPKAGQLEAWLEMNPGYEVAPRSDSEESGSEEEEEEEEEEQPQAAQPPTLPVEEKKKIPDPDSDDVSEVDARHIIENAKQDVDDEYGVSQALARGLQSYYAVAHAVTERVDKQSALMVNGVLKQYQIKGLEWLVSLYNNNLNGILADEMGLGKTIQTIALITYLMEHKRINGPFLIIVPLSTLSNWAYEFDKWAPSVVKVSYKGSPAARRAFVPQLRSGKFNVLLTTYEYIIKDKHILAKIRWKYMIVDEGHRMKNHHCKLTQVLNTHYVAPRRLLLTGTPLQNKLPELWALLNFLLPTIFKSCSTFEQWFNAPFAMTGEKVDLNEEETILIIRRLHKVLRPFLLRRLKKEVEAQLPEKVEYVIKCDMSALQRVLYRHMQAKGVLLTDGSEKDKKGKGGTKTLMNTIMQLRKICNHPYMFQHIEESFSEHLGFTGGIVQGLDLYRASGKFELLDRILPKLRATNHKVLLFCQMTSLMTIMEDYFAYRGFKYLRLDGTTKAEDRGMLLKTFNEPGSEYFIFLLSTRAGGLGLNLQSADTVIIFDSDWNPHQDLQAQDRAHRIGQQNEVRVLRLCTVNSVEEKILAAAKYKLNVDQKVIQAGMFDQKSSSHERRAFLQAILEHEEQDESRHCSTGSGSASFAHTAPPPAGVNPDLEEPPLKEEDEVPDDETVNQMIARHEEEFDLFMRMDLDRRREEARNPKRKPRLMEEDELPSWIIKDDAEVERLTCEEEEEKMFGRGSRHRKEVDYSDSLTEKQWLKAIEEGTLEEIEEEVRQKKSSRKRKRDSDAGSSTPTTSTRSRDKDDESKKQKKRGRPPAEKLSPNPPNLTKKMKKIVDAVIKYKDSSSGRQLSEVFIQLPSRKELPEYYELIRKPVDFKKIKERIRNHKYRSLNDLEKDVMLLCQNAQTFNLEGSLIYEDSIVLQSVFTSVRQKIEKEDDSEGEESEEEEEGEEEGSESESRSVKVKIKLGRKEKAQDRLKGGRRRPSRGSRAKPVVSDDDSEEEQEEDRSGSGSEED
T2 sequence (P51531 with tags, fused parts or gaps): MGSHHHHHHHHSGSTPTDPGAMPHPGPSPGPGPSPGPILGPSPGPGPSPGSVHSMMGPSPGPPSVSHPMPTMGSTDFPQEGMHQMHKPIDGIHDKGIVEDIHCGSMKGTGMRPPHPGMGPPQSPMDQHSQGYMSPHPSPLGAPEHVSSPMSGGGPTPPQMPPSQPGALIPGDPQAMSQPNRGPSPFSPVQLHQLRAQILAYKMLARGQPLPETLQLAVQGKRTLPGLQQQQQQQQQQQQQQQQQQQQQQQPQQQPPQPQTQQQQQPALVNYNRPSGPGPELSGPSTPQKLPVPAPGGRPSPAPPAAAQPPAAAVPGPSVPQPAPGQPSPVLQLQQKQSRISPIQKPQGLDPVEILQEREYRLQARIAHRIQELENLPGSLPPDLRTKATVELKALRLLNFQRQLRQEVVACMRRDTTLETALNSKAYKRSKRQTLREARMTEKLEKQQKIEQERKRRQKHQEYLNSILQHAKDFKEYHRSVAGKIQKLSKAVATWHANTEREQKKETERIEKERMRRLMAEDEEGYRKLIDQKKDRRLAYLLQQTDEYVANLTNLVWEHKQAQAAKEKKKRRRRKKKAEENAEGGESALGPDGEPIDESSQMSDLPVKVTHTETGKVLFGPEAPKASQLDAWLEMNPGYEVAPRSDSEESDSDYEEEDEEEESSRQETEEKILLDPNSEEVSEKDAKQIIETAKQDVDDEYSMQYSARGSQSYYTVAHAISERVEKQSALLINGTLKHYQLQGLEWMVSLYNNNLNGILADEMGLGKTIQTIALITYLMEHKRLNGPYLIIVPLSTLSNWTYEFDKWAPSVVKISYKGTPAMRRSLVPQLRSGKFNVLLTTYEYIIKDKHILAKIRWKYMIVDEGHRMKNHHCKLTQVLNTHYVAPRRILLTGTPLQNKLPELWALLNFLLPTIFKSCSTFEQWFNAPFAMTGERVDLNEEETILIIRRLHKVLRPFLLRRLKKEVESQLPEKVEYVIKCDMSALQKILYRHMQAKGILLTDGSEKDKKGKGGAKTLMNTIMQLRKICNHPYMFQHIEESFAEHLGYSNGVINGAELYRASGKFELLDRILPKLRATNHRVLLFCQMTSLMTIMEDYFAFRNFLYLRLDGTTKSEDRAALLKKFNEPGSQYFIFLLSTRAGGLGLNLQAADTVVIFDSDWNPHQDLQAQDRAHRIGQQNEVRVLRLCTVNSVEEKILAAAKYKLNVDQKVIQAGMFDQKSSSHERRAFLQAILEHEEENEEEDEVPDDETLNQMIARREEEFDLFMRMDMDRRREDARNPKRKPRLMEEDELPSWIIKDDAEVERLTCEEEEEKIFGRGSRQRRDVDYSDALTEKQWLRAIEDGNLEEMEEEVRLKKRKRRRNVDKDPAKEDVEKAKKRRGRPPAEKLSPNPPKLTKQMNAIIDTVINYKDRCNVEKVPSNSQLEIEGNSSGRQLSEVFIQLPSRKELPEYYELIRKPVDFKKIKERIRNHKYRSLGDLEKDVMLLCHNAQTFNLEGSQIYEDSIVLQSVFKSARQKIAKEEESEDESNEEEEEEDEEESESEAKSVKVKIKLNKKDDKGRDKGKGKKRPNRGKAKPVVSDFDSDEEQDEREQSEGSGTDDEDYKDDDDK
T1 sequence (P51531 with tags, fused parts or gaps): as above

Structure (SMILES) | pIC50 ([1]; Table 3.1) | pIC50 (SMARCA2) | pIC50 (A549 cells [2]) | pIC50 (FL-SMARCA4; [4]) | pIC50 (H358 cells) | pIC50 (A549 cells [3]) | pIC50 ([1]; Table 3d.1, read-out: FL-SMARCA2 IC>50) | pIC50 (FL-SMARCA4; FL-SMARCA4 IC50) | pIC50 ([1]; Table 3c.1) | pIC50 (FL-SMARCA4; [5])
N#Cc1cc(C(=O)Nc2cc(F)c(=O)n(CCF)c2)sc1C#N [Compound 189] | 8.04 | 7.63 | 5.01 | 7.47 | – | – | – | – | – | –
O=C(Nc1cc(F)c(=O)n(CC(F)F)c1)c1cc(C#Cc2ccncc2)c(Cl)s1 [Compound 345] | 7.78 | – | 6.45 | 7.42 | < 5.00 | 7.24 | – | – | – | –
CCn1cc(NC(=O)c2cc(Cl)c(Cl)s2)ncc1=O [Compound 18d] | – | – | – | – | – | ≤ 4.52 | < 4.30 | < 4.30 | – | –
Cn1c(C(=O)Nc2ccc(=O)n(-c3ccccc3)c2)cc(Cl)c1Cl [Compound 47] | < 4.30 | – | – | – | – | ≤ 4.52 | – | – | – | –
N#Cc1ncc(C(=O)Nc2cc(F)c(=O)n(CCF)c2)s1 [Compound 138] | 8.19 | 7.85 | ≤ 4.70 | 7.79 | – | ≤ 4.70 | – | – | – | –
O=C(Nc1cc(F)c(=O)n(CCF)c1)c1cc(Cl)c(C(F)(F)F)s1 [Compound 249] | 7.45 | 7.15 | 6.13 | 6.59 | – | 6.49 | – | – | – | –
CCn1cc(NC(=O)c2cc(C#N)c(C#N)s2)cc(Cl)c1=O [Compound 191] | 7.34 | 7.19 | 4.87 | 6.74 | – | 5.08 | – | – | – | –
N#Cc1ncc(C(=O)Nc2cc(Cl)c(=O)n(CCF)c2)s1 [Compound 148] | 7.90 | 7.65 | ≤ 4.70 | – | – | – | – | – | – | –
O=C(Nc1cc(Cl)c(=O)n(CCF)c1)c1cc(Cl)c(Cl)s1 [Compound 101] | 7.13 | 6.50 | 5.64 | 6.62 | – | 6.45 | – | – | – | –
O=C(Nc1cc(F)c(=O)n(CCF)c1)c1cc(F)c(Cl)s1 [Compound 260] | 7.82 | 7.74 | 6.28 | 7.18 | – | 7.03 | – | – | – | –
N#Cc1sc(C(=O)Nc2cc(Cl)c(=O)n(CCF)c2)cc1Cl [Compound 125, 4-Chloro-N-(5-chloro-1-(2-fluoroethyl)-6-oxo-1,6-dihydropyridin-3-yl)-5-cyanothiophene-2-carboxamide] | 7.51 | 7.18 | 5.94 | 6.97 | – | 6.32 | – | – | – | –
O=C(Nc1ccc(=O)n(CCF)c1)c1cc(Cl)c(Cl)s1 [Compound 80] | 6.68 | – | 4.94 | 6.12 | – | 5.20 | – | – | – | –
N#Cc1cc(C(=O)Nc2cc(F)c(=O)n(CCF)c2)sc1Cl [Compound 196] | 7.42 | 7.74 | 6.22 | 6.74 | – | – | – | – | – | –
Cc1ncc(C#Cc2cc(C(=O)Nc3cc(F)c(=O)n(CC(F)F)c3)sc2Cl)o1 [Compound 62c] | – | – | 6.26 | – | < 5.00 | 7.05 | – | – | 8.09 | 7.57
N#Cc1sc(C(=O)Nc2cc(F)c(=O)n(CC(F)F)c2)cc1Cl [Compound 285] | 7.57 | 8.04 | 6.03 | 7.06 | – | – | – | – | – | –
O=C(Nc1cc(F)c(=O)n(CCF)c1)c1cc(Cl)c(Cl)s1 [Compound 129] | 7.29 | 6.94 | 6.04 | 6.71 | – | – | – | – | – | –
Cc1cc(C#Cc2cc(C(=O)Nc3cc(F)c(=O)n(CC(F)F)c3)sc2Cl)sn1 [Compound 64c] | – | – | 6.43 | – | < 5.00 | 7.06 | – | – | 8.06 | 7.53
O=C(Nc1cc(F)c(=O)n(CC(F)F)c1)c1cc(F)c(C(F)F)s1 [Compound 325] | 7.45 | – | – | 6.79 | – | 6.51 | – | – | – | –

Structure (SMILES) | pIC50 ([1]; Table 3.1) | pIC50 (SMARCA2) | pIC50 (A549 cells [2]) | pIC50 (FL-SMARCA4; [4]) | pIC50 (H358 cells) | pIC50 (A549 cells [3]) | pIC50 ([1]; Table 3d.1, read-out: FL-SMARCA2 IC>50) | pIC50 (FL-SMARCA4; FL-SMARCA4 IC50) | pIC50 ([1]; Table 3c.1) | pIC50 (FL-SMARCA4; [5])
O=C(Nc1cc(F)c(=O)n(CCF)c1)c1cnc(C(F)(F)F)s1 [Compound 265] | 7.09 | 6.84 | 5.14 | 6.23 | – | 6.07 | – | – | – | –
N#Cc1cc(C(=O)Nc2cc(F)c(=O)n(CC(F)(F)F)c2)sc1C#N [Compound 190] | 7.70 | 7.46 | 4.92 | 7.07 | – | 5.41 | – | – | – | –
N#Cc1ncc(C(=O)Nc2cc(F)c(=O)n(CC(F)(F)F)c2)o1 [Compound 267] | < 4.30 | – | – | < 4.30 | – | ≤ 5.00 | – | – | – | –
CCn1cc(NC(=O)c2cc(Cl)c(Cl)s2)ccc1=O [Compound 43] | 5.90 | – | – | – | – | 4.82 | – | – | – | –
Cn1c(C(=O)Nc2cc(F)c(=O)n(CC(F)(F)F)c2)cc(Cl)c1Cl [Compound 144] | 6.61 | 5.90 | – | 5.93 | – | – | – | – | – | –
CCn1cc(NC(=O)c2cc(Cl)n[nH]2)cc(Cl)c1=O [Compound 146] | 5.99 | 5.59 | – | 5.45 | – | – | – | – | – | –
N#Cc1ncc(C(=O)Nc2cc(F)c(=O)n(CC(F)(F)F)c2)s1 [Compound 151, 2-Cyano-N-(5-fluoro-6-oxo-1-(2,2,2-trifluoroethyl)-1,6-dihydropyridin-3-yl)thiazole-5-carboxamide] | 7.69 | 7.54 | – | 7.17 | – | – | – | – | – | –
O=C(Nc1cc(F)c(=O)n(CC(F)F)c1)c1cc(F)c(Cl)s1 [Compound 323] | 7.72 | – | 6.50 | 7.17 | – | 6.97 | – | – | – | –
O=C(Nc1cc(F)c(=O)n(CCF)c1)c1cc(F)c(C(F)F)s1 [Compound 324] | 7.46 | – | – | 6.86 | – | 6.55 | – | – | – | –
CCn1cc(NC(=O)c2cc(C#N)c(C#N)s2)cc(F)c1=O [Compound 188] | 7.52 | 7.65 | 4.74 | 6.93 | – | 5.00 | – | – | – | –
O=C(Nc1cc(F)c(=O)n(CC(F)(F)F)c1)c1cnc(Cl)s1 [Compound 143] | 6.92 | 6.77 | – | 6.48 | – | – | – | – | – | –
N#Cc1cc(C(=O)Nc2cc(Cl)c(=O)n(CCF)c2)sc1C#N [Compound 192] | 7.77 | 7.66 | ≤ 4.70 | 7.06 | – | 5.38 | – | – | – | –
O=C(Nc1cc(F)c(=O)n(CCF)c1)c1cnc(Cl)s1 [Compound 142] | 7.32 | 7.22 | 5.87 | 6.79 | – | 6.27 | – | – | – | –
N#Cc1sc(C(=O)Nc2cc(F)c(=O)n(CC(F)(F)F)c2)cc1Cl [Compound 140] | 7.33 | 7.05 | 5.90 | 6.83 | – | – | – | – | – | –
O=C(Nc1cc(F)c(=O)n(CCF)c1)c1cc(F)c(F)s1 [Compound 259] | 7.29 | – | 5.61 | 6.64 | – | 6.75 | – | – | – | –
N#Cc1cc(C(=O)Nc2cc(F)c(=O)n(CCF)c2)[nH]n1 [Compound 176] | 7.26 | 7.09 | ≤ 4.70 | 6.57 | – | ≤ 4.70 | – | – | – | –
N#Cc1sc(C(=O)Nc2cc(F)c(=O)n(CC(F)F)c2)cc1C(F)(F)F [Compound 96c] | – | – | < 5.00 | – | < 5.00 | ≤ 5.00 | – | – | 4.98 | 4.53
O=C(Nc1ccc(=O)n(CC(F)(F)F)c1)c1cc(Cl)n[nH]1 [Compound 145] | 5.52 | 5.30 | – | 4.92 | – | – | – | – | – | –
